According to article PMC10782225 (The FASEB Journal, 2023):

Assays:
human α7β2‐nAChR = biological target: T1, human α7β2‐nAChR (Homo sapiens, UniProt P17787+P36544); assay: cell-based; details: SEM
T1 construct: expressed in transfected cells; host or cells: Xenopus laevis oocytes, cRNA injection

human α7‐only‐nAChR = biological target: T2, human α7‐only‐nAChR (Homo sapiens, UniProt P36544); assay: cell-based; details: SEM
T2 construct: expressed in transfected cells; host or cells: Xenopus laevis oocytes, cRNA injection
T2 sequence (P36544 23-502 limits assumed): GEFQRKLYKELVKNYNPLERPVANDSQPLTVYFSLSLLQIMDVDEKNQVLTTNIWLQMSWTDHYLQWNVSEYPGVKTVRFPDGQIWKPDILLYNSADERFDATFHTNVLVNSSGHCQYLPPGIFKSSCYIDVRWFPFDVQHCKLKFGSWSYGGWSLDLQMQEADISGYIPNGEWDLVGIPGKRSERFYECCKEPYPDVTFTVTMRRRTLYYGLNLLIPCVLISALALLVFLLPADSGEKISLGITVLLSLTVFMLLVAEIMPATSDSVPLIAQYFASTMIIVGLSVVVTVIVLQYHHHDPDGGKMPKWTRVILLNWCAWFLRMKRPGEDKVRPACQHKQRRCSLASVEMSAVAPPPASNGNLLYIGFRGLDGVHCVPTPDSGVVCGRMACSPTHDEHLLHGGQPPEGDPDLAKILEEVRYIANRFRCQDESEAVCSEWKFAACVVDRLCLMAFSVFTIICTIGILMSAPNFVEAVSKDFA

T1 sequence (P36544 23-502 limits assumed): as above
T1 sequence (P17787 26-502 limits assumed): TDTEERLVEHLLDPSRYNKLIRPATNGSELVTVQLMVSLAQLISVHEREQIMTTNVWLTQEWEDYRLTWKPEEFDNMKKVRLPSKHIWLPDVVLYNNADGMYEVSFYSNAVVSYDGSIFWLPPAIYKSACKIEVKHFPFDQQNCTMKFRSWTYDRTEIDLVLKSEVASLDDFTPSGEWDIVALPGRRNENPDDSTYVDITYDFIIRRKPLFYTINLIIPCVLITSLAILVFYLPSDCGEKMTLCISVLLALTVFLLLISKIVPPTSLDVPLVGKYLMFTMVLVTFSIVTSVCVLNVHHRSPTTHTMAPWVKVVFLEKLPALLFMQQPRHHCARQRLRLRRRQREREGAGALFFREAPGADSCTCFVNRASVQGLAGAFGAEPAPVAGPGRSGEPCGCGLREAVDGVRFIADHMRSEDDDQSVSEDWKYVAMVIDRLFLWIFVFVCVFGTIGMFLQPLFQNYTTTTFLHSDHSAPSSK

With `CC(C)C[C@@H]1NC(=O)[C@H](Cc2ccccc2)NC(=O)[C@@H]2CSSC[C@H](NC(=O)CN)C(=O)N[C@@H](CSSC[C@@H](C(N)=O)NC(=O)[C@H](Cc3ccc(O)cc3)NC(=O)[C@H](CC(=O)O)NC(=O)[C@@H]3CCCN3C(=O)[C@H](CC(N)=O)NC(=O)[C@H](CC(N)=O)NC1=O)C(=O)N[C@@H](CO)C(=O)N[C@@H](Cc1c[nH]cn1)C(=O)N1CCC[C@H]1C(=O)N1CCC[C@H]1C(=O)N2` [α‐CtxPnIC, α‐conotoxin PnIC] the Kd (human α7β2‐nAChR; K d α7β2) was 3.3 ± 0.6 nM, the koff (human α7β2‐nAChR; read-out: k off α7β2) was 0.000119 s⁻¹ and the kon (human α7β2‐nAChR; read-out: k on α7β2) was 37200 M⁻¹ s⁻¹. It also gave a Kd (human α7‐only‐nAChR) of 1.9 ± 0.4 nM, a koff (human α7‐only‐nAChR; read-out: k off α7‐only) of 0.000122 s⁻¹ and a kon (human α7‐only‐nAChR; read-out: k on α7‐only) of 68700 M⁻¹ s⁻¹.
